# Laboratory results published in patent US20230096766A1, “AMINO ACID HAVING FUNCTIONAL GROUP CAPABLE OF INTERMOLECULAR HYDROGEN BONDING, PEPTIDE COMPOUND CONTAINING SAME AND METHOD FOR PRODUCTION THEREOF” (Chugai Seiyaku Kabushiki Kaisha, priority 2018, published 2023).
# *1 amine or outer side, *2 acyl side, *3 side chain or, on linkers, in order; H or OH if unused. Where a SMILES comes first, the peptide text is derived from it. Bridges are numbered along the chain shown (N, C = ends). [ ]: non-standard residue; d: D form. The star is where a group is joined. Phe(3-OMe,4-CONHMs) = COc1cc(C[C@H](N)C(=O)O)ccc1C(=O)NS(C)(=O)=O; dhPhe(4-CONHMe,3-OMe) = CNC(=O)c1ccc(CC[C@@H](N)C(=O)O)cc1OC; hPhe(3-OMe,4-CONHMe) = CNC(=O)c1ccc(CC[C@H](N)C(=O)O)cc1OC; X10 = CN([C@@H](CCN1CCC(F)(F)CC1)C(=O)[*:2])[*:1]; NMePhe(3-Cl) = CN[C@@H](Cc1cccc(Cl)c1)C(=O)O; Tyr(3-F) = N[C@@H](Cc1ccc(O)c(F)c1)C(=O)O; Propyl(2,2-Me2,3-OH) = CC(C)(CO)C*; NMeF = CN[C@@H](Cc1ccccc1)C(=O)O; NMeGABA = CN(CCCC(=O)[*:2])[*:1]; NMeβAla = CN(CCC(=O)[*:2])[*:1]; NMeD = CN[C@@H](CC(=O)O)C(=O)O; NMeL = CN[C@@H](CC(C)C)C(=O)O; Propyl(2R-OH) = C[C@@H](O)C*; NMeV = CN[C@H](C(=O)O)C(C)C; NMeAbu = CC[C@H](NC)C(=O)O; NMeA = CN[C@@H](C)C(=O)O; Piperidide = C1CCN(*)CC1; CH2CMe2OH = CC(C)(O)C*; Me2NCH2CH2 = CN(C)CC*; NBuGly = CCCCNCC(=O)O; NPrGly = CCCNCC(=O)O; Sar = CNCC(=O)O; tBu = CC(C)(C)*
# Experiment: in vitro
# Details: human, Caco-2, Caco-2
row,SMILES,Papp
1,CCCN1CC(=O)N(C)[C@@H](CC(C)C)C(=O)N[C@@H](COCCN(C)C)C(=O)N(C)[C@@H](Cc2ccccc2)C(=O)N(C)[C@@H](C(C)C)C(=O)N[C@H](C(=O)N2CCCCC2)CC(=O)N[C@H](C(C)C)C(=O)N(C)[C@@H](Cc2ccccc2)C(=O)N[C@@H](CC(C)C)C(=O)N(C)[C@@H](CC(C)C)C(=O)N[C@@H]([C@@H](C)O)C1=O [pd52] ([dV][NMeF]L[NMeL]T[NPrGly][NMeL]S(Me2NCH2CH2)[NMeF][NMeV]D-Piperidide; lactam N-11),0.12 ×10⁻⁶ cm/s
2,CCCCN1CC(=O)N(C)[C@@H](Cc2ccccc2)C(=O)N[C@@H](CC(C)C)C(=O)N(C)[C@@H](CC(C)C)C(=O)N[C@@H]([C@@H](C)O)C(=O)N(C)CC(=O)N(C)[C@@H](Cc2ccccc2)C(=O)N(C)[C@@H](CCN2CCC(F)(F)CC2)C(=O)N[C@@H](CC(C)C)C(=O)N(C)[C@@H](C(C)C)C(=O)N[C@H](C(=O)N2CCCCC2)CC1=O [pd395] ([NBuGly][NMeF]L[NMeL]T[Sar][NMeF][X10]L[NMeV]D-Piperidide; lactam N-11),1.7 ×10⁻⁶ cm/s

# Same assay, conditions: human, Caco-2, Caco-2 (cm/sec)
row,SMILES,Papp
1,"CC[C@H](C)[C@@H]1NC(=O)[C@H](CC(C)C)N(C)C(=O)CCCN(C)C(=O)C[C@@H](C(=O)N2CCCCC2)NC(=O)[C@H](CC(C)C)N(C)C(=O)[C@H](CC(C)C)N(C)C(=O)[C@H]([C@@H](C)O)NC(=O)[C@H](CC(C)C)N(C)C(=O)[C@@H](CCc2ccc(C(=O)NC)c(OC)c2)NC(=O)[C@H](CC(C)C)N(C)C(=O)[C@H](Cc2ccccc2)N(C)C1=O [AP210] ([NMeGABA][NMeL]I[NMeF][NMeL][dhPhe(4-CONHMe,3-OMe)][NMeL]T[NMeL][NMeL]D-Piperidide; lactam N-11)",0.34 ×10⁻⁶ cm/s
2,CC(C)C[C@@H]1NC(=O)[C@H](Cc2ccccc2)N(C)C(=O)[C@H](C)N(C)C(=O)C[C@@H](C(=O)N2CCCCC2)N(C)C(=O)[C@H](Cc2ccccc2)N(C)C(=O)[C@H](Cc2ccccc2)N(C)C(=O)[C@H](COC(C)(C)C)NC(=O)[C@H](C(C)C)N(C)C(=O)CN(C)C(=O)[C@H]([C@@H](C)O)NC(=O)[C@H](CC(C)C)N(C)C1=O [pd202] ([NMeA][NMeF]L[NMeL]T[Sar][NMeV]S(tBu)[NMeF][NMeF][NMeD]-Piperidide; lactam N-11),2.1 ×10⁻⁶ cm/s
3,"COc1cc(C[C@@H]2NC(=O)[C@H](CC(C)C)N(C)C(=O)[C@H](COC(C)(C)C)NC(=O)[C@H](Cc3ccccc3)N(C)C(=O)[C@H](CC(C)C)N(C)C(=O)[C@H](C)NC(=O)[C@H](CC(C)C)N(C)C(=O)CCCN(C)C(=O)C[C@@H](C(=O)N3CCCCC3)NC(=O)[C@H](CC(C)C)N(C)C(=O)[C@H](CC(C)C)N(C)C2=O)ccc1C(=O)NS(C)(=O)=O [AP141] ([NMeGABA][NMeL]A[NMeL][NMeF]S(tBu)[NMeL][Phe(3-OMe,4-CONHMs)][NMeL][NMeL]D-Piperidide; lactam N-11)",< 0.27 ×10⁻⁶ cm/s
4,"CC[C@H]1C(=O)N[C@@H](CCc2ccc(C(=O)NC)c(OC)c2)C(=O)N(C)[C@@H](CC(C)C)C(=O)N(C)[C@@H](CC(C)C)C(=O)N[C@@H](C(C)C)C(=O)N(C)[C@@H](Cc2ccccc2)C(=O)N(C)[C@@H](CC(C)C)C(=O)N[C@@H]([C@@H](C)O)C(=O)N(C)CC(=O)N(C)[C@@H](CC(C)C)C(=O)N[C@H](C(=O)N2CCCCC2)CC(=O)N1C [AP205] ([NMeAbu][hPhe(3-OMe,4-CONHMe)][NMeL][NMeL]V[NMeF][NMeL]T[Sar][NMeL]D-Piperidide; lactam N-11)",0.79 ×10⁻⁶ cm/s
5,CC(C)C[C@@H]1NC(=O)[C@H](CC(C)C)N(C)C(=O)[C@H](Cc2ccccc2)N(C)C(=O)CN(C)C(=O)[C@H]([C@@H](C)O)NC(=O)[C@H](CC(C)C)N(C)C(=O)[C@H](Cc2ccc(O)c(F)c2)NC(=O)[C@H](CC(C)C)N(C)C(=O)CN(C)C(=O)C[C@@H](C(=O)N2CCCCC2)NC(=O)[C@H](CC(C)C)N(C)C1=O [pd123] ([Sar][NMeL][Tyr(3-F)][NMeL]T[Sar][NMeF][NMeL]L[NMeL]D-Piperidide; lactam N-11),0.44 ×10⁻⁶ cm/s
6,CCCCN1CC(=O)N(C)[C@@H](Cc2ccccc2)C(=O)N(C)[C@@H](CC(C)C)C(=O)N[C@@H](COC(C)(C)C)C(=O)N(C)[C@@H](CC(C)C)C(=O)N[C@H](C(=O)N2CCCCC2)CC(=O)N(C)CC(=O)N(C)[C@@H](Cc2cccc(Cl)c2)C(=O)N[C@@H](COC[C@@H](C)O)C(=O)N(C)[C@@H](CC(C)C)C(=O)N[C@@H]([C@@H](C)O)C1=O [AP77] ([Sar][NMePhe(3-Cl)]S(Propyl(2R-OH))[NMeL]T[NBuGly][NMeF][NMeL]S(tBu)[NMeL]D-Piperidide; lactam N-11),1 ×10⁻⁶ cm/s
7,CCCCN1CC(=O)N(C)[C@@H](CC(C)C)C(=O)N[C@@H](COC(C)(C)C)C(=O)N(C)[C@@H](CC(C)C)C(=O)N(C)[C@@H](CC)C(=O)N[C@H](C(=O)N2CCCCC2)CC(=O)N[C@H](CC(C)C)C(=O)N(C)[C@@H](Cc2ccccc2)C(=O)N[C@@H](Cc2ccc(O)cc2)C(=O)N(C)[C@@H](CC(C)C)C(=O)N[C@@H]([C@@H](C)O)C1=O [Compound F02] ([dL][NMeF]Y[NMeL]T[NBuGly][NMeL]S(tBu)[NMeL][NMeAbu]D-Piperidide; lactam N-11),0.04 ×10⁻⁶ cm/s
8,CCCN1CC(=O)N(C)[C@@H](Cc2ccccc2)C(=O)N[C@@H]([C@@H](C)CC)C(=O)N(C)[C@@H](CC(C)C)C(=O)N[C@@H]([C@@H](C)O)C(=O)N(CCC)CC(=O)N(C)[C@@H](Cc2ccccc2)C(=O)N(C)[C@@H](CC(C)C)C(=O)N[C@@H](COCC(C)(C)O)C(=O)N(C)[C@@H](C(C)C)C(=O)N[C@H](C(=O)N2CCCCC2)CC1=O [AP09] ([NPrGly][NMeF]I[NMeL]T[NPrGly][NMeF][NMeL]S(CH2CMe2OH)[NMeV]D-Piperidide; lactam N-11),1.1 ×10⁻⁶ cm/s
9,"CCCCN1CC(=O)N(C)[C@@H](Cc2ccccc2)C(=O)N(C)[C@@H](C(C)C)C(=O)N[C@@H](COC(C)(C)C)C(=O)N(C)[C@@H](CC(C)C)C(=O)N[C@H](C(=O)N2CCCCC2)CC(=O)N(C)CC(=O)N(C)[C@@H](Cc2cccc(Cl)c2)C(=O)N[C@@H](COCC(C)(C)CO)C(=O)N(C)[C@@H](CC(C)C)C(=O)N[C@@H]([C@@H](C)O)C1=O [AP123] ([Sar][NMePhe(3-Cl)]S(Propyl(2,2-Me2,3-OH))[NMeL]T[NBuGly][NMeF][NMeV]S(tBu)[NMeL]D-Piperidide; lactam N-11)",0.8 ×10⁻⁶ cm/s
10,CC(C)C[C@@H]1NC(=O)[C@H](Cc2ccccc2)N(C)C(=O)[C@H](COC(C)(C)C)NC(=O)[C@H](Cc2ccccc2)N(C)C(=O)[C@H](C)N(C)C(=O)[C@H](CC(C)C)N(C)C(=O)[C@H]2CCCN2C(=O)C[C@@H](C(=O)N2CCCCC2)N(C)C(=O)[C@H](Cc2ccccc2)N(C)C(=O)[C@H]([C@@H](C)O)NC(=O)[C@H](C(C)C)N(C)C1=O [pd219] ([dP][NMeL][NMeA][NMeF]S(tBu)[NMeF]L[NMeV]T[NMeF][NMeD]-Piperidide; lactam N-11),1.1 ×10⁻⁶ cm/s

# Same assay, conditions: human, Caco-2, Caco-2 (cm/sec) Papp
row,SMILES,Papp
1,CC[C@H](C)[C@@H]1NC(=O)[C@H](Cc2ccccc2)N(C)C(=O)[C@H](C)N(C)C(=O)[C@H](CC(C)C)N(C)C(=O)[C@H](Cc2ccccc2)N(C)C(=O)CCN(C)C(=O)C[C@@H](C(=O)N(C)[C@@H](Cc2ccccc2)C(=O)N(C)[C@@H](Cc2ccccc2)C(=O)N[C@@H](C)C(=O)N2CCCCC2)NC(=O)[C@H]([C@@H](C)O)NC(=O)[C@H](CC(C)C)N(C)C(=O)[C@H](CC(C)C)N(C)C1=O [pd239] ([NMeβAla][NMeF][NMeL][NMeA][NMeF]I[NMeL][NMeL]TD[NMeF][NMeF]A-Piperidide; lactam N-10),0.065 ×10⁻⁶ cm/s
